# Experimental data taken from ChEMBL document CHEMBL3596092, “Design, synthesis and biological evaluation of 4-(alkyloxy)-6-methyl-2H-pyran-2-one derivatives as quorum sensing inhibitors” (Bioorg Med Chem Lett, 2015).
# Activity calls are given as the source filed them. The calls are words filed in the database; no cut-off is given here.
# Key:
# [1] = target: T1, Transcriptional activator protein LasR (Pseudomonas aeruginosa (strain ATCC 15692 / PAO1 / 1C / PRS 101 / LMG12228)) (UniProt P25084); experiment: Inhibition of LasR in Pseudomonas aeruginosa PA14 assessed as reduction in rhlI gene expression at 10 uM by RT-qPCR method
# T1 sequence (whole entry): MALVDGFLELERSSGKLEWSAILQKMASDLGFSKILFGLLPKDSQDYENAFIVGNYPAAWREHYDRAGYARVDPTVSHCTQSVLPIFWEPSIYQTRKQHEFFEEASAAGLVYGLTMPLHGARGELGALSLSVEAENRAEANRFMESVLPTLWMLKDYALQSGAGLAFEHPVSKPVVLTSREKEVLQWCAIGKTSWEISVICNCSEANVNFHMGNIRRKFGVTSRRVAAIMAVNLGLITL
# Pseudomonas aeruginosa [2] = experiment: Toxicity against Pseudomonas aeruginosa PA14 assessed as effect on bacterial growth at 1 to 10 uM incubated at 37 degC for 13 hrs
# [3] = target: T1, Transcriptional activator protein LasR (Pseudomonas aeruginosa (strain ATCC 15692 / PAO1 / 1C / PRS 101 / LMG12228)); experiment: Inhibition of LasR in Pseudomonas aeruginosa PA14 assessed as reduction in lasI gene expression at 10 uM by RT-qPCR method
# [4] = target: T1, Transcriptional activator protein LasR (Pseudomonas aeruginosa (strain ATCC 15692 / PAO1 / 1C / PRS 101 / LMG12228)); experiment: Inhibition of LasR in Pseudomonas aeruginosa PA14 assessed as reduction in lasR gene expression at 10 uM by RT-qPCR method
# Pseudomonas aeruginosa [5] = experiment: Toxicity against Pseudomonas aeruginosa PA14 assessed as effect on house keeping proC gene expression at 10 uM by RT-qPCR method
# [6] = target: T1, Transcriptional activator protein LasR (Pseudomonas aeruginosa (strain ATCC 15692 / PAO1 / 1C / PRS 101 / LMG12228)); experiment: Inhibition of LasR in Pseudomonas aeruginosa PA14 assessed as reduction in lasB gene expression at 10 uM by RT-qPCR method
# [7] = target: T1, Transcriptional activator protein LasR (Pseudomonas aeruginosa (strain ATCC 15692 / PAO1 / 1C / PRS 101 / LMG12228)); experiment: Inhibition of LasR in Pseudomonas aeruginosa PA14 assessed as reduction in rhlA gene expression at 10 uM by RT-qPCR method
# [8] = target: T1, Transcriptional activator protein LasR (Pseudomonas aeruginosa (strain ATCC 15692 / PAO1 / 1C / PRS 101 / LMG12228)); experiment: Inhibition of LasR in Pseudomonas aeruginosa PA14 assessed as reduction in phzC1 gene expression at 10 uM by RT-qPCR method
# [9] = target: T1, Transcriptional activator protein LasR (Pseudomonas aeruginosa (strain ATCC 15692 / PAO1 / 1C / PRS 101 / LMG12228)); experiment: Inhibition of LasR in Pseudomonas aeruginosa PA14 assessed as reduction in biofilm formation at 0.1 to 10 uM incubated at 37 degC for 24 hrs by crystal violet staining based static biofilm formation assay
# [10] = target: T1, Transcriptional activator protein LasR (Pseudomonas aeruginosa (strain ATCC 15692 / PAO1 / 1C / PRS 101 / LMG12228)); experiment: Inhibition of LasR in Pseudomonas aeruginosa PA14 assessed as reduction in phzE1 gene expression at 10 uM by RT-qPCR method
# [11] = target: T1, Transcriptional activator protein LasR (Pseudomonas aeruginosa (strain ATCC 15692 / PAO1 / 1C / PRS 101 / LMG12228)); experiment: Inhibition of LasR in Pseudomonas aeruginosa PA14 assessed as reduction in pqsH gene expression at 10 uM by RT-qPCR method
# [12] = target: T1, Transcriptional activator protein LasR (Pseudomonas aeruginosa (strain ATCC 15692 / PAO1 / 1C / PRS 101 / LMG12228)); experiment: Inhibition of LasR in Pseudomonas aeruginosa PA14 assessed as reduction in rhlB gene expression at 10 uM by RT-qPCR method
# [13] = target: T1, Transcriptional activator protein LasR (Pseudomonas aeruginosa (strain ATCC 15692 / PAO1 / 1C / PRS 101 / LMG12228)); experiment: Inhibition of LasR in Pseudomonas aeruginosa PA14 assessed as reduction in pqsC gene expression at 10 uM by RT-qPCR method
# [14] = target: T1, Transcriptional activator protein LasR (Pseudomonas aeruginosa (strain ATCC 15692 / PAO1 / 1C / PRS 101 / LMG12228)); experiment: Inhibition of Pseudomonas aeruginosa LasR expressed in Pseudomonas aeruginosa PA14 over-expressing pUCPLasR assessed as reduction in biofilm formation at 0.1 to 100 uM incubated at 37 degC for 24 hrs by crystal violet staining based static biofilm formation assay
# [15] = target: T1, Transcriptional activator protein LasR (Pseudomonas aeruginosa (strain ATCC 15692 / PAO1 / 1C / PRS 101 / LMG12228)); experiment: Inhibition of LasR in Pseudomonas aeruginosa PA14 assessed as reduction in mvfR gene expression at 10 uM by RT-qPCR method
# [16] = target: T1, Transcriptional activator protein LasR (Pseudomonas aeruginosa (strain ATCC 15692 / PAO1 / 1C / PRS 101 / LMG12228)); experiment: Inhibition of LasR in Pseudomonas aeruginosa PA14 assessed as reduction in rhlR gene expression at 10 uM by RT-qPCR method
# [17] = target: T1, Transcriptional activator protein LasR (Pseudomonas aeruginosa (strain ATCC 15692 / PAO1 / 1C / PRS 101 / LMG12228)); experiment: Inhibition of LasR in Pseudomonas aeruginosa PA14 assessed as reduction in biofilm formation incubated at 37 degC for 24 hrs by crystal violet staining based static biofilm formation assay
# [18] = target: T1, Transcriptional activator protein LasR (Pseudomonas aeruginosa (strain ATCC 15692 / PAO1 / 1C / PRS 101 / LMG12228)); experiment: Inhibition of LasR in Pseudomonas aeruginosa PA14 assessed as reduction in biofilm formation at 1 to 1000 uM incubated at 37 degC for 24 hrs by crystal violet staining based static biofilm formation assay
# [19] = target: T1, Transcriptional activator protein LasR (Pseudomonas aeruginosa (strain ATCC 15692 / PAO1 / 1C / PRS 101 / LMG12228)); experiment: Inhibition of LasR in Pseudomonas aeruginosa PA14 assessed as reduction in phnB gene expression at 10 uM by RT-qPCR method
# [20] = target: T1, Transcriptional activator protein LasR (Pseudomonas aeruginosa (strain ATCC 15692 / PAO1 / 1C / PRS 101 / LMG12228)); experiment: Inhibition of LasR in Pseudomonas aeruginosa PA14 assessed as reduction in pqsD gene expression at 10 uM by RT-qPCR method
# [21] = target: T1, Transcriptional activator protein LasR (Pseudomonas aeruginosa (strain ATCC 15692 / PAO1 / 1C / PRS 101 / LMG12228)); experiment: Inhibition of LasR in Pseudomonas aeruginosa PA14 assessed as reduction in lasA gene expression at 10 uM by RT-qPCR method
compound,measurement,setting,value
CCCCCCCCCCCCOc1cc(C)oc(=O)c1,inhibition,[1],Active
same,Activity,Pseudomonas aeruginosa [2],Non-toxic
same,inhibition,[3],Active
same,inhibition,[4],Active
same,Activity,Pseudomonas aeruginosa [5],Non-toxic
same,inhibition,[6],Active
same,inhibition,[7],Active
same,inhibition,[8],Active
same,inhibition,[9],6%
same,inhibition,[10],Active
same,inhibition,[11],Active
same,inhibition,[12],Active
same,inhibition,[13],Active
same,inhibition,[14],Active
same,inhibition,[15],Active
same,inhibition,[16],Active
same,inhibition,[17],Dose-dependent effect
same,inhibition,[18],11%
same,inhibition,[19],Active
same,inhibition,[20],Active
same,inhibition,[21],Active
O=C1C=C(Br)/C(=C/Br)O1,inhibition,[18],13%
CCCCCCCCCCCCCCOc1cc(C)oc(=O)c1,inhibition,[18],6%
CCCCCCCCCCCCCOc1cc(C)oc(=O)c1,inhibition,[18],6%
